Reference: ChEMBL document CHEMBL1811776, “Discovery of benzimidazole derivatives as novel multi-target EGFR, VEGFR-2 and PDGFR kinase inhibitors” (Bioorg Med Chem, 2011)
Calls of active or inactive are those of the source. No cut-off for these calls is given here.

What was measured:
HepG2 [1] = experiment: cells; details: Homo sapiens, HepG2, 72 h
Description: Cytotoxicity against human HepG2 cells after 72 hrs by MTT assay

[2] = target: Platelet-derived growth factor receptor alpha (Homo sapiens) (UniProt P16234); experiment: Inhibition of PDGFR-alpha at 50 uM after 1 hrs by luminescence assay
[3] = target: Phosphatidylinositol 4,5-bisphosphate 3-kinase catalytic subunit alpha isoform (Homo sapiens) (UniProt P42336); experiment: Inhibition of PI3K-alpha at 50 uM after 1 hrs by luminescence assay
[4] = target: Vascular endothelial growth factor receptor 1 (Homo sapiens) (UniProt P17948); experiment: Inhibition of VEGFR-1 at 50 uM after 1 hrs by luminescence assay
[5] = target: Platelet-derived growth factor receptor alpha (Homo sapiens) (UniProt P16234); experiment: Inhibition of PDGFR-alpha at 20 uM after 1 hrs by luminescence assay
[6] = target: Vascular endothelial growth factor receptor 2 (Homo sapiens) (UniProt P35968); experiment: Inhibition of VEGFR-2 at 50 uM after 1 hrs by luminescence assay
[7] = target: Platelet-derived growth factor receptor beta (Homo sapiens) (UniProt P09619); experiment: Inhibition of PDGFR-beta at 50 uM after 1 hrs by luminescence assay
[8] = target: Epidermal growth factor receptor (Homo sapiens, UniProt P00533); experiment: Inhibition of EGFR after 1 hrs by luminescence assay
HepG2 [9] = experiment: Induction of apoptosis in human HepG2 cells assessed as early apoptotic cells at 2 uM after 72 hrs using annexin V-propidium iodide staining based flow cytometric analysis; assay type: functional
HepG2 [10] = experiment: Induction of apoptosis in human HepG2 cells assessed as late apoptotic or dead cells at 2 uM after 72 hrs using annexin V-propidium iodide staining based flow cytometric analysis; assay type: functional
[11] = target: Platelet-derived growth factor receptor beta (Homo sapiens) (UniProt P09619); experiment: Inhibition of PDGFR-beta at 20 uM after 1 hrs by luminescence assay
[12] = target: Vascular endothelial growth factor receptor 2 (Homo sapiens) (UniProt P35968); experiment: Inhibition of VEGFR-2 at 20 uM after 1 hrs by luminescence assay

Chain of Platelet-derived growth factor receptor alpha (Homo sapiens) (P16234 whole entry, canonical isoform): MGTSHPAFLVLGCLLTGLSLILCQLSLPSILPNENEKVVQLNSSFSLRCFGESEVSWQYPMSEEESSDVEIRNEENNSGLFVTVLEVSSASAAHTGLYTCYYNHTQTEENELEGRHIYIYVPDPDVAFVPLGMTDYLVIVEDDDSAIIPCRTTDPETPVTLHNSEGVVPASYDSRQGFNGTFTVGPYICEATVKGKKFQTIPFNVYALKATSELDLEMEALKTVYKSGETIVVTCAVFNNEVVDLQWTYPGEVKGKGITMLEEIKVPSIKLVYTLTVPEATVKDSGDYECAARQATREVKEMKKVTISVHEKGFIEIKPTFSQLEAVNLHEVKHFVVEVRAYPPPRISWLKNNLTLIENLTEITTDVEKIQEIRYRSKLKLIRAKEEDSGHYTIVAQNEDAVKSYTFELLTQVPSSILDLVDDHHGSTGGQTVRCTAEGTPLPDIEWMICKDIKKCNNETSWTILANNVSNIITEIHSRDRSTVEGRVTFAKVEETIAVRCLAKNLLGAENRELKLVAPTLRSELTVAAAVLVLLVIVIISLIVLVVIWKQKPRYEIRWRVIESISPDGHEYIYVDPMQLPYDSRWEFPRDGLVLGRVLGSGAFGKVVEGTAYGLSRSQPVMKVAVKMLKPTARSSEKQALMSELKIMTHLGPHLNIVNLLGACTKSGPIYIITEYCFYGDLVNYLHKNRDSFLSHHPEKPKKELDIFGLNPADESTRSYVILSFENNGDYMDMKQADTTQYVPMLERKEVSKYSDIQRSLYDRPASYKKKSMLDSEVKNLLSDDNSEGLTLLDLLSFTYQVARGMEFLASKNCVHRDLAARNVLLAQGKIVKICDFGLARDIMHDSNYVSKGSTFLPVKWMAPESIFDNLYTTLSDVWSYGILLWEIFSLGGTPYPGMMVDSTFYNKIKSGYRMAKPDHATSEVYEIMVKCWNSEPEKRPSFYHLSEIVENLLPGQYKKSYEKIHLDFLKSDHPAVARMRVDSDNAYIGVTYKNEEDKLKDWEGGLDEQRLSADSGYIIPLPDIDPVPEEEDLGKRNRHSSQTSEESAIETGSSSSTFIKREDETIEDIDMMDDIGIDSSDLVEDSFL
Chain of Vascular endothelial growth factor receptor 1 (Homo sapiens) (P17948 whole entry): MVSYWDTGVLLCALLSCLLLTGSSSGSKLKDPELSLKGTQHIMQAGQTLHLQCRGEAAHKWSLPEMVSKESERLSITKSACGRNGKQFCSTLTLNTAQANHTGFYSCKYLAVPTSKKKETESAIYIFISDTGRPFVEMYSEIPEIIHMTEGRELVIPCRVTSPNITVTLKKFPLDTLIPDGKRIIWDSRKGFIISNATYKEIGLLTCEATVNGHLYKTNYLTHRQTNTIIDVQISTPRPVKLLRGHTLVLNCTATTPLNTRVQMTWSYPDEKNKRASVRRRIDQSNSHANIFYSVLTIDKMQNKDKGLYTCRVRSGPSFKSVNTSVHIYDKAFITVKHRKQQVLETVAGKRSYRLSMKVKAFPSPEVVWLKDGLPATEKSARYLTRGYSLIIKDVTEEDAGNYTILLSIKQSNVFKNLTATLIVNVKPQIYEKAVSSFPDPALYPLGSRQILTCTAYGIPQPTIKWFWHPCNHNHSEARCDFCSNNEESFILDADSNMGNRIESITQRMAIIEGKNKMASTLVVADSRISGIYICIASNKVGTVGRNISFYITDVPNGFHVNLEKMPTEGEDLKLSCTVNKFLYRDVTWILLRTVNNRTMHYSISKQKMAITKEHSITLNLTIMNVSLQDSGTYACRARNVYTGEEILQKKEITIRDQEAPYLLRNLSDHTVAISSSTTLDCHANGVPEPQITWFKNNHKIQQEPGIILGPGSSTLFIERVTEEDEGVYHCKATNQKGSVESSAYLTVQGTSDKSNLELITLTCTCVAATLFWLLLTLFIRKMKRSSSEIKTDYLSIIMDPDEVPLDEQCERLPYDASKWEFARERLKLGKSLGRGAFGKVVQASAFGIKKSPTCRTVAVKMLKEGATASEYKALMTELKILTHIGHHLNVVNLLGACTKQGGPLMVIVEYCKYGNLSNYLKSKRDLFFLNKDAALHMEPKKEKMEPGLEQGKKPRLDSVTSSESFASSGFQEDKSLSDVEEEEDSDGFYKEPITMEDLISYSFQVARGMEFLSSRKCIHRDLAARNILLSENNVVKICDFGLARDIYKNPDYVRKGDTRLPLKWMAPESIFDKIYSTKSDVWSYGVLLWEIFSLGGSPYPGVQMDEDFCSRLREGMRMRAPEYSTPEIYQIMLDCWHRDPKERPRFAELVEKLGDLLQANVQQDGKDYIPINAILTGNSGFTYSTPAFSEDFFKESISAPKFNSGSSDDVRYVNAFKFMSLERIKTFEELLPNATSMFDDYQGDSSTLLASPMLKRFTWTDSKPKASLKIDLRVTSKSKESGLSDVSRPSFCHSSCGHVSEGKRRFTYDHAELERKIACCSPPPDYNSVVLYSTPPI
Chain of Platelet-derived growth factor receptor beta (Homo sapiens) (P09619 whole entry): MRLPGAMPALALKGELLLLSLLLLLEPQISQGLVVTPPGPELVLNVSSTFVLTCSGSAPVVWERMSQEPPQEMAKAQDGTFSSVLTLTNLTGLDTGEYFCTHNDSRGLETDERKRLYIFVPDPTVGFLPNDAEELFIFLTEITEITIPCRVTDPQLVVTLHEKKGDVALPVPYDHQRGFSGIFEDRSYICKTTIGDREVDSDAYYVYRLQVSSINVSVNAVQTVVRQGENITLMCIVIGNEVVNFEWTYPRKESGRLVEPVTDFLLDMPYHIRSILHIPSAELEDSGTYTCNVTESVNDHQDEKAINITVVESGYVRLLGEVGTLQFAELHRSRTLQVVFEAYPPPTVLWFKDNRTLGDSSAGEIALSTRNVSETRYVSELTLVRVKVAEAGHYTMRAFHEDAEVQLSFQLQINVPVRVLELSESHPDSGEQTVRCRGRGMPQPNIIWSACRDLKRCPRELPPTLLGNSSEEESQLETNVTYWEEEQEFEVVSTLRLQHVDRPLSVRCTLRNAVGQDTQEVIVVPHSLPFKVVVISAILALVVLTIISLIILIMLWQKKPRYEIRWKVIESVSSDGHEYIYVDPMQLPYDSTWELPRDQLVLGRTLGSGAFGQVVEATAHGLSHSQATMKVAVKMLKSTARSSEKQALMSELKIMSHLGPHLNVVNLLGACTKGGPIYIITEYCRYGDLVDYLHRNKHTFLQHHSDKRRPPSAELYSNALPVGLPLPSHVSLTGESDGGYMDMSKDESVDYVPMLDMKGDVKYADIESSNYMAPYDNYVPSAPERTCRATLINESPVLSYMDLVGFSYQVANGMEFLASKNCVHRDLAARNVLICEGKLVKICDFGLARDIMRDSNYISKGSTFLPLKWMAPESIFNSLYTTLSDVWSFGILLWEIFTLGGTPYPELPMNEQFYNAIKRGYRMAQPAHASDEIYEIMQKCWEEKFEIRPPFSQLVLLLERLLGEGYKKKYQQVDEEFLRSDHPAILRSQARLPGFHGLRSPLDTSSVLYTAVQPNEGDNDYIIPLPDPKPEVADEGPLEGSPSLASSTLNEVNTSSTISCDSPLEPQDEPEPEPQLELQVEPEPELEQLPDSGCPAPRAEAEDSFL
Chain of Phosphatidylinositol 4,5-bisphosphate 3-kinase catalytic subunit alpha isoform (Homo sapiens) (P42336 whole entry, canonical isoform): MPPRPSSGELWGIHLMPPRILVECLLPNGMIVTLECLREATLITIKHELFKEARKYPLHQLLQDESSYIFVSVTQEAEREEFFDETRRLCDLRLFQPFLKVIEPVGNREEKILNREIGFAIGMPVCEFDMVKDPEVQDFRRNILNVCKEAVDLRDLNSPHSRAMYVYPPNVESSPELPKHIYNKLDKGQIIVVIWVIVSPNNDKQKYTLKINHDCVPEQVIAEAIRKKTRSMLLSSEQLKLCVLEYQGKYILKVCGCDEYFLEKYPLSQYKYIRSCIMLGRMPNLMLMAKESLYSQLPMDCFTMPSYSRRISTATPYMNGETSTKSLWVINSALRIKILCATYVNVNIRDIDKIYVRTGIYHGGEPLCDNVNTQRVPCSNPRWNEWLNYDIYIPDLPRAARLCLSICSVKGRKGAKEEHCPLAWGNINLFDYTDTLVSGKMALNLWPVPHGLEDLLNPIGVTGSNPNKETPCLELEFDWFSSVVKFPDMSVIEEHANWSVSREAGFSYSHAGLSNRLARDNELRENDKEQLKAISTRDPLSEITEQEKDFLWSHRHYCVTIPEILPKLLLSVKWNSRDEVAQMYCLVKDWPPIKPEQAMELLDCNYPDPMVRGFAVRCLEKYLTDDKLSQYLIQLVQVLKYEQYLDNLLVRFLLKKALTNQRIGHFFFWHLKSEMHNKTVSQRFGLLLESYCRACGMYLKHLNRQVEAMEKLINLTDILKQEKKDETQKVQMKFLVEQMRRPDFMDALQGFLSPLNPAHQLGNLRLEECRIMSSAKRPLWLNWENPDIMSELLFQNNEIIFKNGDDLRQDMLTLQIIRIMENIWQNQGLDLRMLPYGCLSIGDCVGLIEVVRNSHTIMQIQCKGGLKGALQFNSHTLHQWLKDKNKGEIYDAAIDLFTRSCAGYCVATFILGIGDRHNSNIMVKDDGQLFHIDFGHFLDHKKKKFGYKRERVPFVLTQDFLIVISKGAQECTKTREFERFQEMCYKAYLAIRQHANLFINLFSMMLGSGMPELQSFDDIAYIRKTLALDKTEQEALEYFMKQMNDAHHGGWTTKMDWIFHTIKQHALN

Cc1ccc(-c2nc3cc(NC(=O)CCN4CCN(C)CC4)ccc3[nH]2)cc1
IC50 (HepG2 [1]): > 50 µM

CCN1CCN(CC(=O)Nc2ccc3[nH]c(-c4cccn4C)nc3c2)CC1
IC50 (HepG2 [1]): > 50 µM

CN[C@@H]1C[C@H]2O[C@@](C)([C@@H]1OC)n1c3ccccc3c3c4c(c5c6ccccc6n2c5c31)C(=O)NC4
inhibition [2]: 92.6%
inhibition [3]: 97%
inhibition [4]: 93.4%
inhibition [5]: 97.5%

Cn1cccc1-c1nc2cc(NC(=O)CCCl)ccc2[nH]1
IC50 (HepG2 [1]): > 50 µM

COc1cc2c(c(OC)c1OC)-c1ccc(OC)c(=O)cc1[C@@H](NC(C)=O)CC2 [COLCHICINE]
IC50 (HepG2 [1]): 0.05 µM

CCN1CCN(CCC(=O)Nc2ccc3[nH]c(-c4cccn4C)nc3c2)CC1
IC50 (HepG2 [1]): > 50 µM

Cc1ccc(-c2nc3cc(NC(=O)CN4CCOCC4)ccc3[nH]2)cc1
IC50 (HepG2 [1]): > 50 µM

Cc1ccc(-c2nc3cc(NC(=O)CCN4CCCCC4)ccc3[nH]2)cc1
IC50 (HepG2 [1]): 11.9 µM

Cc1ccc(-c2nc3cc(NC(=O)CCCl)ccc3[nH]2)cc1
inhibition [2]: 17%
inhibition [3]: inactive
inhibition [4]: 3.3%
inhibition [6]: inactive
inhibition [7]: 24.6%
IC50 (HepG2 [1]): > 50 µM

CCN1CCN(CCC(=O)Nc2ccc3[nH]c(-c4ccc(Br)cc4)nc3c2)CC1
IC50 (HepG2 [1]): 27.4 µM

CCN1CCN(CC(=O)Nc2ccc3[nH]c(-c4ccc(C)cc4)nc3c2)CC1
IC50 (HepG2 [1]): 31.9 µM

Cc1ccc(-c2nc3cc(NC(=O)CN4CCCC4)ccc3[nH]2)cc1
IC50 (HepG2 [1]): > 50 µM

CCN1CCN(CCC(=O)Nc2ccc3[nH]c(-c4ccc(C)cc4)nc3c2)CC1
IC50 (HepG2 [1]): 14.6 µM

Cn1cccc1-c1nc2cc(NC(=O)CCl)ccc2[nH]1
inhibition [2]: 18.7%
inhibition [3]: 3.7%
inhibition [4]: inactive
IC50 [8]: 12.1 µM
Activity (HepG2 [9]): 22.8%
inhibition [6]: 16.5%
inhibition [7]: 17.8%
IC50 (HepG2 [1]): 1.8 µM
Activity (HepG2 [10]): 18.7%

O=C(Nc1ccc2[nH]c(-c3ccc(F)cc3)nc2c1)c1cnccn1
inhibition [11]: 0.27%
inhibition [5]: 2.55%
inhibition [12]: 0.58%

Cc1ccc(-c2nc3cc(NC(=O)CN4CCCCC4)ccc3[nH]2)cc1
IC50 (HepG2 [1]): > 50 µM

Cc1cnc(C(=O)Nc2ccc3[nH]c(-c4ccc(F)cc4)nc3c2)cn1
inhibition [11]: 0.5%
inhibition [5]: 5.43%
inhibition [12]: 0.5%

Cc1ccc(-c2nc3cc(NC(=O)CCl)ccc3[nH]2)cc1
inhibition [2]: 42.7%
inhibition [3]: inactive
inhibition [4]: 7.3%
IC50 [8]: 1.93 µM
Activity (HepG2 [9]): 28.6%
inhibition [6]: 33.1%
inhibition [7]: 52.6%
IC50 (HepG2 [1]): 2 µM
Activity (HepG2 [10]): 16.6%

Cc1ccc(-c2nc3cc(NC(=O)CN4CCN(C)CC4)ccc3[nH]2)cc1
IC50 (HepG2 [1]): > 50 µM

O=C(CCCl)Nc1ccc2[nH]c(-c3ccc(Br)cc3)nc2c1
IC50 (HepG2 [1]): 11.3 µM
